System: Aβ42 production
Assay: Quantification of Aβ peptide in culture of neurons from rat fetus brain (Aβ ELISA)
Type: cell-based
Settings: Neuron, 72 h; rat primary neuronal culture (embryonic day 18 Wistar rat cerebral cortex); cultured three days after addition of compound; Aβ42 concentration in the medium by ELISA; read-out: Aβ42 production reducing effect IC50
Description: Quantification of Aβ Peptide in Culture of Neurons from Rat Fetus Brain
(1) Rat Primary Neuronal Culture
Primary neuronal cultures were prepared from the cerebral cortex of embryonic day 18 Wistar rats (Charles River Japan, Yokohama, Japan). Specifically, the embryos were aseptically removed from pregnant rats under ether anesthesia. The brain was isolated from the embryo and immersed in an ice-cold L-15 medium (such as Invitrogen Corp. Cat #11415-064, Carlsbad, Calif., USA, or SIGMA L1518). The cerebral cortex was collected from the isolated brain under a stereoscopic microscope. The cerebral cortex fragments collected were enzymatically treated in an enzyme solution containing 0.25% trypsin (Invitrogen Corp. Cat #15050-065, Carlsbad, Calif., USA) and 0.01% DNase (Sigma D5025, St. Louis, Mo., USA) at 37° C. for 30 minutes to disperse the cells. Here, the enzymatic reaction was stopped by adding inactivated horse serum to the solution. The enzymatically treated solution was centrifuged at 1,500 rpm for five minutes to remove the supernatant. 5 to 10 ml of a medium was added to the resulting cell mass. […]

Structure (SMILES): NC1=N[C@@]2(c3cc(NC(=O)c4cnc(OCF)cn4)ccc3F)COC[C@@H](F)[C@H]2CS1 [Example 21, N-[3-((4aS,5S,8aS)-2-amino-5-fluoro-4,4a,5,6,8,8a-hexahydro-7-oxa-3-thia-1-azanaphthalen-8a-yl)-4-fluorophenyl]-5-fluoromethoxypyrazine-2-carboxamide]
- IC50: 10 nM

— patent US8198269B2, “Fused aminodihydrothiazine derivative” (Eisai R&D Management Co., Ltd., priority 2008, dated 2012)
